According to patent publication US20250154145A1, “OXER1 ANTAGONISTS AND USES THEREOF” (Fairhaven Pharmaceuticals Ins., priority 2021, published 2025):

Test system: neutrophils
Experiment: Neutrophil calcium flux assay (5-OXO-ETE-stimulated, Indo-1 fluorescence)
Type: cell-based
Details: 5-OXO-ETE-stimulated calcium flux
Protocol: After isolation, neutrophils were resuspended in PBS without calcium and Magnesium (PBS −/−) at a concentration of 5×10^6 cells/ml. 2ul of Indo-1 (1 mM) were added per ml of cells. After incubation at 37° C. for 30 minutes, cells were washed twice in PBS −/− and resuspended at 5×10^6 cells/ml in assay buffer (HBSS 1× with calcium and magnesium and […]). In a 96-well Black optical clear bottom plate 100 μL of neutrophil were dispensed to each well. After incubation at 37° C. for 5 minutes, 50 μL of assay buffer or 3× antagonist were added and incubated for 5 min in a Tecan Spark plate reader (Tecan, Morrisville, NC). Baseline was measured for 30 sec (wavelength setup: excitation: 331 nm and emission:410 nm). When baseline is stable, 50p of 5-OXO-ETE at 200 nM (4×) or HBSS was added to appropriate wells. Fluorescence was measured every 5 seconds for 30 cycles. Results are expressed as Net fluorescence (FLU minus Background and injection peak). All data were analyzed using GraphPad Prism version 9 for Windows (GraphPad, San Diego, CA).

| SMILES | IC50 [nM] |
| --- | --- |
| CC(CC(=O)O)CC(=O)c1c(CCCCCC(O)c2cccc(C(=O)N(C)C)c2)n(C)c2ncc(C#N)cc12 (single isomer, unassigned) [Compound I-315] | > 300 |
| CC(CC(=O)O)CC(=O)c1c(CCCCCC(O)c2cccc(C#N)c2)n(C)c2ncc(Cl)cc12 (single isomer, unassigned) [Compound I-307] | < 100 |

Same assay, conditions: Neutrophil, 5-OXO-ETE-stimulated calcium flux

| SMILES | IC50 [nM] |
| --- | --- |
| C[C@H](CC(=O)O)CC(=O)c1c(CCCOCCc2cccc(Cl)c2)n(C)c2ccc(Cl)cc12 [Compound I-61] | < 100 |
| C[C@H](CC(=O)O)CC(=O)c1c(CCCCCOCc2ccccc2)n(C)c2ncc(C#N)cc12 [Compound I-422] | 100 to 300 |
| C[C@@H](CC(=O)O)CC(=O)c1c(CCCCOCc2cccc(C#N)c2)n(C)c2cnccc12 [Compound I-395] | > 300 |
| CC(CC(=O)O)CC(=O)c1c(CCCCO)n(C)c2ncc(C#N)cc12 (stereo not shown) [Compound I-429] | > 300 |
| C[C@H](CC(=O)O)CC(=O)c1c(CCCCOCc2cccc(C#N)c2)n(C)c2c(F)cc(Cl)cc12 [Compound I-415] | > 300 |
| C[C@H](CC(=O)O)CC(=O)c1c(COCCCCC#CC2CC(F)(F)C2)n(C)c2ccc(Cl)cc12 [Compound I-327] | < 100 |
| C[C@H](CC(=O)O)CC(=O)c1c(CCCCOCc2cc(Cl)cc(Cl)c2)n(C)c2ncc(C#N)cc12 [Compound I-385] | < 100 |
| C[C@H](CC(=O)O)CC(=O)c1c(CCCCCCc2cccc(Cl)c2)n(CCO)c2ncc(C#N)cc12 [Compound I-279] | < 100 |
| CC(CC(=O)O)CC(=O)c1c(CCCCCCc2cscn2)n(C)c2ncc(C#N)cc12 (stereo not shown) [Compound I-373] | 100 to 300 |
| Cn1c(CCCCCCC#CC2CC(F)(F)C2)c(C(=O)N2CC[C@H](C(=O)O)C2)c2cc(C#N)cnc21 [Compound I-340] | < 100 |
| C[C@H](OCCCCc1c(C(=O)N2CC[C@H](C(=O)O)C2)c2cc(C#N)cnc2n1C)c1ccccc1 [Compound I-453] | > 300 |
| [2H]C([2H])([2H])n1c(CCCCOCc2cccc(Cl)c2)c(C(=O)C[C@H](C)CC(=O)O)c2cc(C#N)ccc21 [Compound I-421] | < 100 |
| C[C@H](CC(=O)O)CC(=O)c1c(CCCCC(=O)Nc2cc(Cl)ccc2O)n(C)c2ccc(Cl)cc12 [Compound I-146] | 100 to 300 |
| CC(CC(=O)O)CC(=O)c1c(CCCCOCc2cccc(Cl)c2)n(C)c2ncc(CN(C)C)cc12 (stereo not shown) [Compound I-375] | > 300 |
| C[C@H](CC(=O)O)N(C)C(=O)c1c(CCCCCCc2cccc(Cl)c2)n(C)c2ccc(Cl)cc12 [Compound I-239] | > 300 |
| CC(CC(=O)O)CC(=O)c1c(CCCC(C)OCc2ccccc2)n(C)c2ncc(C#N)cc12 (stereo not shown) [Compound I-435] | 100 to 300 |
| COc1cccc(COCCCCc2c(C(=O)CC(C)CC(=O)O)c3cc(Cl)cnc3n2C)n1 (stereo not shown) [Compound I-447] | > 300 |
| C[C@H](CC(=O)O)CC(=O)c1c(CCCCCC#CC2CC(F)(F)C2)n(C)c2ccc(Cl)cc12 [Compound I-330] | > 300 |
| Cn1c(CCCCCCC#CC2CC(F)(F)C2)c(C(=O)N2CC[C@H](c3nnn[nH]3)C2)c2cc(Cl)ccc21 [Compound I-353] | < 100 |
| CC(C)C#CCCCCCc1c(C(=O)C[C@H](C)CC(=O)O)c2cc(Cl)ccc2n1C [Compound I-114] | > 300 |
| C[C@@H]1CN(C(=O)c2c(CCCCCCC#CC3CC(F)(F)C3)n(C)c3ncc(C#N)cc23)C[C@H]1C(=O)O [Compound I-347] | > 300 |

| SMILES | IC50 [nM] |
| --- | --- |
| C[C@H](CC(=O)O)CC(=O)c1c(CCCCOCc2cccc(Cl)c2)n(C)c2cnc(Cl)cc12 [Compound I-410] | < 100 |
| C[C@H](CC(=O)O)CC(=O)c1c(CCCCOCc2cccc(F)c2)n(C)c2ncc(C#N)cc12 [Compound I-293] | < 100 |
| CC(CC(=O)O)CC(=O)c1c(CCCCOCc2cccc(OC(F)(F)F)c2)n(C)c2cnc(Cl)cc12 (stereo not shown) [Compound I-412] | < 100 |
| Cn1c(CCCCOCc2cccc(Cl)c2)c(C(=O)N2CC[C@H](c3nnn[nH]3)C2)c2cc(C#N)cnc21 [Compound I-224] | 100 to 300 |
| C[C@H](CC(=O)O)CC(=O)c1c(CCCCOCc2cccc(C#N)c2)n(C)c2ncc(C#N)cc12 [Compound I-383] | < 100 |
| CC(C)CCCCc1c(C(=O)C[C@H](C)CC(=O)O)c2cc(Cl)ccc2n1C [Compound I-70] | 100 to 300 |
| C[C@H](CC(=O)O)CC(=O)c1c(CCCCCCC#CC2COC2)n(C)c2ccc(Cl)cc12 [Compound I-332] | < 100 |
| C[C@@H](CC(=O)O)CC(=O)c1c(CCCCOCc2cccc(Cl)c2)n(C)c2ccc(C#N)cc12 [Compound I-469] | 100 to 300 |
| C[C@H](CC(=O)O)CC(=O)c1c(CCCCO[C@H](C)c2ccccc2)n(C)c2ncc(C#N)cc12 [Compound I-434] | < 100 |
| Cn1c(CCCCCC(O)c2cccc(Cl)c2)c(C(=O)N2CC[C@H](C(=O)O)C2)c2cc(Cl)cnc21 (stereo partly shown) [Compound I-173] | > 300 |
| C[C@H](CC(=O)O)CC(=O)c1c(CCCCCCc2cncs2)n(C)c2ncc(C#N)cc12 [Compound I-371] | < 100 |
| C[C@H](CC(=O)O)CC(=O)c1c(CCCCCNc2cnccn2)n(C)c2ccc(Cl)cc12 [Compound I-129] | > 300 |
| Cn1c(CCCCCCC#CC2CC(F)(F)C2)c(C(=O)N2CC[C@](F)(C(=O)O)C2)c2cc(C#N)cnc21 [Compound I-344] | > 300 |
| Cn1c(CCCOCCc2cccc(Cl)c2)c(C(=O)N2CC[C@H](C(=O)O)C2)c2cc(Cl)cnc21 [Compound I-174] | > 300 |
| CC(C)OCCCc1c(C(=O)C[C@H](C)CC(=O)O)c2cc(Cl)ccc2n1C [Compound I-71] | > 300 |
| C[C@@H](CC(=O)O)CC(=O)c1c(CCCCCCCC#CC2CC(F)(F)C2)n(C)c2ncc(C#N)cc12 [Compound I-336] | > 300 |
| CC(CC(=O)O)CC(=O)c1c2cc(C#N)cnc2n(C)c1[C@H]1CC[C@@H](OCc2cccc(Cl)c2)CC1 (stereo partly shown) [Compound I-292] | > 300 |
| C[C@H](CC(=O)O)CC(=O)c1c(CCCCC[C@@H](O)c2cccc(Cl)c2)n(C)c2ncc(Cl)cc12 [Compound I-107] | < 100 |
| CC(=O)Nc1cccc(C(O)CCCCCc2c(C(=O)CC(C)CC(=O)O)c3cc(C#N)cnc3n2C)c1 (stereo not shown) [Compound I-312] | > 300 |
| Cn1c(-c2ccccc2Cl)cc(C(=O)N2CC[C@H](C(=O)O)C2)c1CCCCOCc1cccc(Cl)c1 [Compound I-171] | > 300 |
| C[C@H](CC(=O)O)CC(=O)c1c(CCOCCNc2cccc(F)c2)n(C)c2ncc(C#N)cc12 [Compound I-246] | 100 to 300 |

| SMILES | IC50 [nM] |
| --- | --- |
| Cn1c(CCCCCCC#CC2CC(F)(F)C2)c(C(=O)N2CC[C@H](c3noc(=O)[nH]3)C2)c2cc(C#N)cnc21 [Compound I-456] | > 300 |
| CC(CN(C)C(=O)c1c(CCCCCCc2cccc(Cl)c2)n(C)c2ccc(Cl)cc12)C(=O)O (stereo not shown) [Compound I-243] | > 300 |
| CC(CC(=O)O)CC(=O)c1c(C[C@H]2CC[C@H](OCc3cccc(Cl)c3)CC2)n(C)c2ncc(C#N)cc12 (stereo partly shown) [Compound I-402] | 100 to 300 |
| C[C@H](CC(=O)O)CC(=O)c1c(CCOCCOc2cccc(Cl)c2)n(C)c2ccc(Cl)cc12 [Compound I-64] | 100 to 300 |
| Cn1c(CCCCCC#CC2CC(F)(F)C2)c(C(=O)N2CC[C@H](C(=O)O)C2)c2cc(C#N)cnc21 [Compound I-343] | > 300 |
| CC(CC(=O)NS(C)(=O)=O)CC(=O)c1c(CCCCOCc2cccc(Cl)c2)n(C)c2ccc(C#N)cc12 (stereo not shown) [Compound I-300] | > 300 |
| Cn1cc(-c2cccc(Cl)c2)c(C(=O)N2CC[C@H](C(=O)O)C2)c1CCCCOCc1cccc(Cl)c1 [Compound I-167] | > 300 |
| C[C@@H](CC(=O)O)CC(=O)c1c(CCCCCCc2cccc(Cl)c2)n(CCO)c2ncc(C#N)cc12 [Compound I-280] | > 300 |
| C[C@@H](CC(=O)O)CC(=O)c1c(CCCCOCc2cccc(C#N)c2)n(C)c2ncc(Cl)cc12 [Compound I-213] | > 300 |
| CC(CC(=O)O)CC(=O)c1c(CCCCCC(O)c2ccc(F)cc2)n(C)c2ncc(C#N)cc12 (stereo not shown) [Compound I-311] | > 300 |
| C[C@H](CC(=O)O)CC(=O)c1c(CCOCC#Cc2ccc(F)nc2)n(C)c2ncc(Cl)cc12 [Compound I-229] | 100 to 300 |
| Cn1c(CCCCCCc2cccc(Cl)c2)c(C(=O)N2CCC[C@@H]2CC(=O)O)c2cc(Cl)ccc21 [Compound I-119] | > 300 |
| C[C@H](CC(=O)O)CC(=O)c1c(CCCCOCC23CC(C#N)(C2)C3)n(C)c2ccc(Cl)cc12 [Compound I-108] | 100 to 300 |
| C[C@@H](CC(=O)c1c(CCCCCCc2cccc(Cl)c2)n(C)c2ncc(Cl)cc12)Cc1nnn[nH]1 [Compound I-84] | < 100 |
| C[C@@H](CC(=O)O)CC(=O)c1c(CCCCCOCc2ccccc2)n(C)c2ncc(C#N)cc12 [Compound I-423] | > 300 |
| CC(CC(=O)O)CC(=O)c1c(CCCCC#Cc2ccc(F)nc2)n(C)c2ncc(Cl)cc12 (stereo not shown) [Compound I-227] | > 300 |
| C[C@H](CC(=O)O)CC(=O)c1c(CCCCO[C@@H](C)c2ccccc2)n(C)c2ncc(C#N)cc12 [Compound I-432] | < 100 |
| CC(CC(=O)O)CC(=O)c1c(CCCCOCc2ccc(F)c(Cl)c2)n(C)c2ncc(C#N)cc12 (stereo not shown) [Compound I-291] | < 100 |
| CC(CC(=O)O)CC(=O)c1c(CCCCCOCc2cccc(Cl)c2)[nH]c2ccc(C#N)cc12 (stereo not shown) [Compound I-443] | 100 to 300 |
| CC(CC(=O)O)CC(=O)c1c(CCCCOCc2cncc(C#N)c2)n(C)c2ncc(Cl)cc12 (stereo not shown) [Compound I-445] | > 300 |
